Assay results reported in patent US20120165384A1, “INHIBITION OF HISTONE ACETYLTRANSFERASES BY CTK7A AND METHODS THEREOF” (JAWAHARLAL NEHRU CENTRE FOR ADVANCED SCIENTIFIC RESEARCH, priority 2009, published 2012).

Molecular target: HDAC1 (Homo sapiens, UniProt Q13547)
Test: Histone deacetylase assay, HDAC1
Format: biochemical
Settings: even at 100 μM
Method: The deacetylation assay was performed as per standard protocol^31. For SirT2 deacetylase assay, 50 ng of bacterially expressed, recombinant enzyme was added in the presence or absence of cofactor NAD^+. HMTase was performed as reported earlier^31.

Chain of HDAC1 (Q13547 whole entry, species assumed): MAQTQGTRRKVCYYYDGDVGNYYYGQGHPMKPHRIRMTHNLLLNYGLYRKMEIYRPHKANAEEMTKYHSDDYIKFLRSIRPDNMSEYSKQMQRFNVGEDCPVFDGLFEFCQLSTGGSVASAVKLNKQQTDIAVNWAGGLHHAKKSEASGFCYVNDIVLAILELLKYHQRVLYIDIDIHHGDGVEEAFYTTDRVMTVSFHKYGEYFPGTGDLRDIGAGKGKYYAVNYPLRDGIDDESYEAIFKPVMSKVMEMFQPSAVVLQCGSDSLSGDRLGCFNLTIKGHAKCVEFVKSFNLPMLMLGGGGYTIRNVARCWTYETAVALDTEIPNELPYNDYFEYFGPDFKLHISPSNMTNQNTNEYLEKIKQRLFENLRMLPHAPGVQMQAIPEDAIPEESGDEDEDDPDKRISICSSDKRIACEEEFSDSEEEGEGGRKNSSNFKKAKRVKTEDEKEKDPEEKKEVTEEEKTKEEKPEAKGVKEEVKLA

Compound: COc1cc([O-])cc(C=CC2=NN(c3ccc(C(=O)[O-])cc3)C(C=Cc3cc([O-])cc(OC)c3)C2)c1.[Na+].[Na+].[Na+] (stereo not shown) [CTK7A, Sodium 4-(3,5-bis(3-methoxy-5-oxidostyryl)-4,5dihydro-1H-pyrazole-1-yl)benzoate]
- effect on HDAC1 activity: unaffected
